# Data from patent publication US10294202B2, “Pyrrolidinones as herbicides” (FMC Corporation, priority 2013, dated 2019).
# Legend:
# ragweed = assay: Test A pre-/postemergence herbicide test; format: in vivo, Ambrosia elatior
# Outline: (§1)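 Both application timings used compounds in a non-phytotoxic solvent plus surfactant. Pre-emergence: soil sprayed directly after seeding into loam/sand. Post-emergence: foliage of 2–10 cm seedlings (1–2 leaves) sprayed. Injury rated ~10 days later, 0–100.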
# corn = assay: Test A pre-/postemergence herbicide test; format: in vivo, Zea mays; settings: Postemergence
# Outline: as §1
# barnyardgrass [1] = assay: Test A pre-/postemergence herbicide test; format: in vivo, Echinochloa crus-galli
# Outline: as §1
# galium = assay: Test A postemergence herbicide test; format: in vivo, Galium aparine
# Outline: (§2)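 Plants at the one- to two-leaf stage, 2–10 cm tall, grown in loam/sand pots, received postemergence sprays of the test chemicals. After about 10 days in the greenhouse, injury was scored visually against untreated controls on a 0–100 scale (0 none, 100 complete control).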
# pigweed = assay: Test A pre-/postemergence herbicide test; format: in vivo, Amaranthus retroflexus
# Outline: as §1
# kochia = assay: Test A pre-/postemergence herbicide test; format: in vivo, Kochia scoparia
# Outline: as §1
# ducksalad = assay: Test B flooded paddy test; format: in vivo, Heteranthera limosa; settings: 500 g ai/ha, Flood; scale of 0 to 100 where 0 is no effect and 100 is complete control
# Outline: (§3)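 2-leaf plants; flood 3 cm over soil; compound into paddy water; depth held. Greenhouse 13–15 d. Visual rating vs controls, 0 (no effect) to 100 (complete control); dash = not tested.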
# ryegrass, Italian = assay: Test A pre-/postemergence herbicide test; format: in vivo, Lolium multiflorum
# Outline: as §1
# sedge, umbrella = assay: Test B flooded paddy test; format: in vivo, Cyperus difformis; settings: 500 g ai/ha, Flood; scale of 0 to 100 where 0 is no effect and 100 is complete control
# Outline: as §3
# giant foxtail = assay: Test A pre-/postemergence herbicide test; format: in vivo, Setaria faberii
# Outline: as §1
# wheat = assay: Test A pre-/postemergence herbicide test; format: in vivo, Triticum aestivum; settings: Postemergence
# Outline: as §1
# rice = assay: Test B flooded paddy test; format: in vivo, Oryza sativa; settings: 500 g ai/ha, Flood; scale of 0 to 100 where 0 is no effect and 100 is complete control
# Outline: as §3
# blackgrass = assay: Test A postemergence herbicide test; format: in vivo, Alopecurus myosuroides
# Outline: as §2
# barnyardgrass [2] = assay: Test B flooded paddy test; format: in vivo, Echinochloa crus-galli; settings: 500 g ai/ha, Flood; scale of 0 to 100 where 0 is no effect and 100 is complete control
# Outline: as §3
# [3] = 125 g ai/ha, visual rating, 0 to 100 scale, 0 no effect, 100 complete control, approximately 10 days, preemergence
# [4] = Postemergence, 125 g ai/ha, 0 to 100 scale, 0 is no effect, 100 is complete control
# [5] = preemergence, 500 g ai/ha, 0 to 100 scale, 0 is no effect and 100 is complete control
# [6] = 125 g ai/ha, 0 to 100 scale, 0 is no effect, 100 is complete control
# [7] = Postemergence, 125 g ai/ha, visual rating on 0 to 100 scale (0 no effect, 100 complete control), approx. 10 days
# [8] = Postemergence, 500 g ai/ha, 0 to 100 scale (0 no effect, 100 complete control)
# [9] = Preemergence, 125 g ai/ha, 0 to 100 scale where 0 is no effect and 100 is complete control
# [10] = Preemergence, 500 g ai/ha, visual rating on 0 to 100 scale (0 no effect, 100 complete control)
# [11] = 125 g ai/ha, visual rating on 0 to 100 scale (0 no effect, 100 complete control), approx. 10 days
# [12] = 500 g ai/ha, 0 to 100 scale (0 no effect, 100 complete control)
structure (smiles),measurement,setting,value
O=C1NCC(c2cccc(OC(F)F)c2)C1C(=O)Nc1ccccc1Br (stereo not drawn) [Compound 228],"Plant response rating, Ragweed",ragweed; [3],0
same,"Plant response rating, Ragweed",ragweed; [4],0
same,"Ragweed plant response rating (0 to 100 scale, 0 is no effect, 100 is complete control)","ragweed; Postemergence, 500 g ai/ha",20
same,"Plant response rating, Ragweed",ragweed; [5],20
same,"Plant response rating, Corn",corn; [6],20
same,"Corn plant response rating (0 to 100 scale, 0 is no effect, 100 is complete control)",corn; 500 g ai/ha,30
same,"Plant response rating, Barnyardgrass",barnyardgrass [1]; [3],50
same,"Plant response rating, Barnyardgrass",barnyardgrass [1]; [4],60
same,"Barnyardgrass plant response rating (0 to 100 scale, 0 is no effect, 100 is complete control)","barnyardgrass [1]; Postemergence, 500 g ai/ha",80
same,"Plant response rating, Barnyardgrass",barnyardgrass [1]; [5],80
same,"Plant response rating, Galium",galium; [6],30
same,"Galium plant response rating (0 to 100 scale, 0 is no effect, 100 is complete control)",galium; 500 g ai/ha,40
same,"Plant response rating, Pigweed",pigweed; [3],0
same,"Plant response rating, Pigweed",pigweed; [4],0
same,"Pigweed plant response rating (0 to 100 scale, 0 is no effect, 100 is complete control)","pigweed; Postemergence, 500 g ai/ha",0
same,"Plant response rating, Pigweed",pigweed; [5],0
same,"Plant response rating, Kochia",kochia; [3],0
same,"Plant response rating, Kochia",kochia; [4],20
same,"Kochia plant response rating (0 to 100 scale, 0 is no effect, 100 is complete control)","kochia; Postemergence, 500 g ai/ha",30
same,"Plant response rating, Kochia",kochia; [5],20
same,"Plant response rating, Ducksalad",ducksalad,90
same,"Plant response rating, Ryegrass, Italian","ryegrass, Italian; [3]",30
same,"Plant response rating, Ryegrass, Italian","ryegrass, Italian; [4]",0
same,"Ryegrass, Italian plant response rating (0 to 100 scale, 0 is no effect, 100 is complete control)","ryegrass, Italian; Postemergence, 500 g ai/ha",20
same,"Plant response rating, Ryegrass, Italian","ryegrass, Italian; [5]",40
same,"Plant response rating, Sedge, Umbrella","sedge, umbrella",0
same,"Plant response rating, Foxtail, Giant",giant foxtail; [3],80
same,"Plant response rating, Foxtail, Giant",giant foxtail; [4],70
same,"Foxtail, Giant plant response rating (0 to 100 scale, 0 is no effect, 100 is complete control)","giant foxtail; Postemergence, 500 g ai/ha",90
same,"Plant response rating, Foxtail, Giant",giant foxtail; [5],90
same,"Plant response rating, Wheat",wheat; [6],0
same,"Wheat plant response rating (0 to 100 scale, 0 is no effect, 100 is complete control)",wheat; 500 g ai/ha,20
same,"Plant response rating, Rice",rice,0
same,"Plant response rating, Blackgrass",blackgrass; [6],20
same,"Blackgrass plant response rating (0 to 100 scale, 0 is no effect, 100 is complete control)",blackgrass; 500 g ai/ha,40
same,"Plant response rating, Barnyardgrass",barnyardgrass [2],0
O=C1NCC(c2cccc(Oc3ccccc3)c2)C1C(=O)Nc1ccc(F)cc1F (stereo not drawn) [Compound 331],"Plant response rating, Ragweed",ragweed; [7],0
same,"Plant response rating, Ragweed",ragweed; [8],0
same,"Plant response rating, Ragweed",ragweed; [9],0
same,Ragweed plant response rating,ragweed; [10],20
same,"Plant response rating, Corn",corn; [11],0
same,"Plant response rating, Corn",corn; [12],0
same,"Plant response rating, Barnyardgrass",barnyardgrass [1]; [7],20
same,"Plant response rating, Barnyardgrass",barnyardgrass [1]; [8],70
same,"Plant response rating, Barnyardgrass",barnyardgrass [1]; [9],20
same,Barnyardgrass plant response rating,barnyardgrass [1]; [10],80
same,"Plant response rating, Galium",galium; [11],0
same,"Plant response rating, Galium",galium; [12],30
same,"Plant response rating, Pigweed",pigweed; [7],0
same,"Plant response rating, Pigweed",pigweed; [8],0
same,"Plant response rating, Pigweed",pigweed; [9],0
same,Pigweed plant response rating,pigweed; [10],20
same,"Plant response rating, Kochia",kochia; [7],0
same,"Plant response rating, Kochia",kochia; [8],20
same,"Plant response rating, Kochia",kochia; [9],0
same,Kochia plant response rating,kochia; [10],0
same,"Plant response rating, Ducksalad",ducksalad,65
same,"Plant response rating, Ryegrass, Italian","ryegrass, Italian; [7]",0
same,"Plant response rating, Ryegrass, Italian","ryegrass, Italian; [8]",0
same,"Plant response rating, Ryegrass, Italian","ryegrass, Italian; [9]",0
same,"Ryegrass, Italian plant response rating","ryegrass, Italian; [10]",20
same,"Plant response rating, Sedge, Umbrella","sedge, umbrella",0
same,"Plant response rating, Foxtail, Giant",giant foxtail; [7],20
same,"Plant response rating, Foxtail, Giant",giant foxtail; [8],80
same,"Plant response rating, Foxtail, Giant",giant foxtail; [9],50
same,"Foxtail, Giant plant response rating",giant foxtail; [10],90
same,"Plant response rating, Wheat",wheat; [11],0
same,"Plant response rating, Wheat",wheat; [12],0
same,"Plant response rating, Rice",rice,0
same,"Plant response rating, Blackgrass",blackgrass; [11],0
same,"Plant response rating, Blackgrass",blackgrass; [12],30
same,"Plant response rating, Barnyardgrass",barnyardgrass [2],40
